From patent US7612064B2, “Sulfopyrroles” (Takeda Pharmaceutical Company Limited, priority 2003, dated 2009) come the findings set out here.

Broadly, the IC50 is the point on the concentration scale where inhibition reaches its midpoint. A low value points to greater potency.

Experiment [1] in a line: Hoechst 33342 nuclear staining.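 For all read-outs here: apoptotic nuclei scored 0 none 1 weak under 50% of cells 2 strong over 50% of cells.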 The class given is cell-based. Particulars: 24 h or 48 h incubation; for Hoechst 33342 nuclear staining score, HeLa: HeLa cells; for Hoechst 33342 nuclear staining score, Jurkat: Jurkat cells. The protocol: This assay is performed in 96 well tissue culture plates. Appropriate number of cells (adherent cells: 3-5*10^3, suspension cells: 8-10*10^3) are being seeded out in 80 μl complete medium. Adherent cells are incubated for 24 h for proper spreading out before addition of test compounds while suspension cells are immediately treated with test compounds after seeding out. The test compounds are added in 20 μl complete medium containing max 5% DMSO. […] […] The assay plates are then further incubated for 30 min and subsequently analyzed with a standard inverted fluorescence microscope.
The readout allows the determination of the fraction of apoptotic nuclei as well as other morphological criteria specific for apoptosis as a function of the treatment. The following scores are used: 0 relating to no activity, 1 relating to weak activity comprising less than 50% of the cells and score 2 relating to strong activity comprising more than 50% of the cells.

The test system of a further experiment is HeLa. Kind of experiment: MTS proliferation assay. Format: cell-based, human. Particulars: 72 h. The protocol: (§1) The assay is performed in 96 well tissue culture plates. […] The test compounds are added in 20 μl complete medium containing max 5% DMSO. The final compound concentrations in the assays are 10 μM, 3 μM, 1 μM and 0.3 μM, respectively. The assay plates are incubated for 72 h at culture conditions. The MTS reagent is prepared according to the manufacturer's protocol (Promega G1111). 20 μl MTS reagent are added to each well, the assay plates are quickly spun and incubated for another 3 h at culture conditions. Subsequently, the plates are shortly shacked and absorption measured with a microplate-reader at 492 nm.
In general terms: Tetrazolium dyes change colour on reduction, which living cells bring about.

The subject of a further experiment is MRC5. As to the kind of experiment: MTS proliferation assay. Format: cell-based. Conditions: MRC5, 72 h. The protocol: as §1
[2] abbreviates: conc 0.1 (final concentrations in μM).
Setting [3] is: conc 0.3 (final concentrations in μM).
Where [4] appears, read: conc 1 (final concentrations in μM).
[5] abbreviates: conc 3 (final concentrations in μM).
Setting [6] is: conc 10 (final concentrations in μM).

For `Cc1ccc(S(=O)(=O)n2cc(CNCCCN(C)C)cc2-c2ccc3c(c2)OCO3)cc1.Cl.Cl` [2 × 2HCl], the “Hoechst 33342 nuclear staining score, HeLa” value in experiment [1] (setting [2]), in experiment [1] (setting [3]), in experiment [1] (setting [4]) and in experiment [1] (setting [5]) was 0 in each case. Further, the “Hoechst 33342 nuclear staining score, Jurkat” value in experiment [1] (setting [2]), in experiment [1] (setting [3]), in experiment [1] (setting [4]) and in experiment [1] (setting [5]) was 0 throughout.

Consider `CCN(Cc1cc(-c2cccs2)n(S(=O)(=O)c2ccc(C)cc2)c1)c1ccc(OC)cc1OC` [Example 1, 4(N-2,4-Dimethoxyphenyl-N-ethylaminomethyl)-2-(2-thienyl)-1-(p-toluene-sulfonyl)-pyrrole], for which the IC50 in the experiment on HeLa and in the experiment with MRC5 was more than 1000 nM throughout.

For the compound `Cc1ccc(S(=O)(=O)n2cc(CNCCCN(C)C)cc2-c2ccc3c(c2)OCO3)cc1` [Example 2, 4-(N-[3-Dimethylaminopropyl]-aminomethyl)-2-(3,4-methylenedioxyphenyl)-1-(p-toluenesulfonyl)-pyrrole], the IC50 in the experiment on HeLa (Homo sapiens) and in the experiment on MRC5 (Homo sapiens) was more than 1000 nM each time. In addition, the “Hoechst 33342 nuclear staining score, HeLa” value in experiment [1] (setting [2]), in experiment [1] (setting [3]), in experiment [1] (setting [4]) and in experiment [1] (setting [5]) was 0 each time. Also, the “Hoechst 33342 nuclear staining score, Jurkat” value in experiment [1] (setting [2]), in experiment [1] (setting [3]), in experiment [1] (setting [4]) and in experiment [1] (setting [5]) was 0 each time.

Compound `Cc1ccc(S(=O)(=O)n2cc(CNCCc3ccccc3)cc2-c2cccs2)cc1` [Example 7] came in with an IC50 in the experiment with HeLa of more than 1000 nM. For the same compound, the “Hoechst 33342 nuclear staining score, HeLa” value in experiment [1] (setting [2]), in experiment [1] (setting [3]), in experiment [1] (setting [4]) and in experiment [1] (setting [5]) was 0 in each case. Moreover, the “Hoechst 33342 nuclear staining score, Jurkat” value in experiment [1] (setting [2]), in experiment [1] (setting [3]), in experiment [1] (setting [4]) and in experiment [1] (setting [5]) was 0 each time.

As for `Cc1ccc(S(=O)(=O)n2cc(CNc3ccc(N4CCOCC4)cc3)cc2-c2cccs2)cc1` [Example 9], in the experiment with HeLa, the half-maximal inhibitory concentration (IC50) was more than 1000 nM. Further, the “Hoechst 33342 nuclear staining score, HeLa” value in experiment [1] (setting [2]) is reported as 0; in experiment [1] (setting [3]) it was 0; in experiment [1] (setting [4]) it was 0; in experiment [1] (setting [5]) it was 1 (weak activity comprising less than 50% of the cells). Also, the “Hoechst 33342 nuclear staining score, Jurkat” value in experiment [1] (setting [2]) was 0; in experiment [1] (setting [3]) it was 0; in experiment [1] (setting [4]), 0; in experiment [1] (setting [5]), 2 (strong activity comprising more than 50% of the cells).

On to `Cc1ccc(S(=O)(=O)n2cc(CNCCCc3ccccc3)cc2-c2ccc3c(c2)OCO3)cc1` [Example 10], for which the half-inhibitory concentration (IC50) in the experiment with HeLa and in the experiment with MRC5 was more than 1000 nM each time. The “Hoechst 33342 nuclear staining score, HeLa” value in experiment [1] (setting [2]), in experiment [1] (setting [3]), in experiment [1] (setting [4]) and in experiment [1] (setting [5]) was 0 in each case. In addition, the “Hoechst 33342 nuclear staining score, Jurkat” value in experiment [1] (setting [2]), in experiment [1] (setting [3]), in experiment [1] (setting [4]) and in experiment [1] (setting [5]) was 0 throughout.

In the case of `COc1ccc(CCNCc2cc(-c3ccc4c(c3)OCO4)n(S(=O)(=O)c3ccc(C)cc3)c2)cc1` [Example 11], the IC50 with HeLa was more than 1000 nM. The “Hoechst 33342 nuclear staining score, HeLa” value in experiment [1] (setting [2]), in experiment [1] (setting [3]), in experiment [1] (setting [4]) and in experiment [1] (setting [5]) was 0 each time. Besides, the “Hoechst 33342 nuclear staining score, Jurkat” value in experiment [1] (setting [2]), in experiment [1] (setting [3]), in experiment [1] (setting [4]) and in experiment [1] (setting [5]) was 0 throughout.

`Cc1ccc(S(=O)(=O)n2cc(CNCCCN3CCN(C)CC3)cc2-c2ccc3c(c2)OCO3)cc1.Cl.Cl` [Example 13]: the “Hoechst 33342 nuclear staining score, HeLa” value in experiment [1] (setting [2]), in experiment [1] (setting [3]), in experiment [1] (setting [4]) and in experiment [1] (setting [5]) was 0 each time. The “Hoechst 33342 nuclear staining score, Jurkat” value in experiment [1] (setting [2]), in experiment [1] (setting [3]), in experiment [1] (setting [4]) and in experiment [1] (setting [5]) was 0 each time.

For `Cc1ccc(S(=O)(=O)n2cc(CNc3ccc(CN4CCOCC4)cc3)cc2-c2ccc3c(c2)OCO3)cc1` [Example 41], the 50% inhibitory concentration (IC50) in the experiment with HeLa and in the experiment with MRC5 was more than 1000 nM each time. The “Hoechst 33342 nuclear staining score, HeLa” value in experiment [1] (setting [3]), in experiment [1] (setting [4]), in experiment [1] (setting [5]) and in experiment [1] (setting [6]) was 0 each time. The “Hoechst 33342 nuclear staining score, Jurkat” value in experiment [1] (setting [3]), in experiment [1] (setting [4]), in experiment [1] (setting [5]) and in experiment [1] (setting [6]) was 0 each time.

Take `Cc1ccc(S(=O)(=O)n2cc(CNCCc3ccccc3)cc2-c2ccc3c(c2)OCO3)cc1` [Example 43]: the IC50 with HeLa and in the experiment with MRC5 was more than 1000 nM throughout. In addition, the “Hoechst 33342 nuclear staining score, HeLa” value in experiment [1] (setting [3]), in experiment [1] (setting [4]), in experiment [1] (setting [5]) and in experiment [1] (setting [6]) was 0 throughout. For the same compound, the “Hoechst 33342 nuclear staining score, Jurkat” value in experiment [1] (setting [3]), in experiment [1] (setting [4]), in experiment [1] (setting [5]) and in experiment [1] (setting [6]) was 0 in each case.

As for `Cc1ccc(S(=O)(=O)n2cc(CNc3ccccn3)cc2-c2ccc3c(c2)OCO3)cc1` [Example 44], the IC50 in the experiment with HeLa and in the experiment with MRC5 was more than 1000 nM throughout. Besides, the “Hoechst 33342 nuclear staining score, HeLa” value is 0 in experiment [1] (setting [3]), 0 in experiment [1] (setting [4]), 0 in experiment [1] (setting [5]) and 2 (strong activity comprising more than 50% of the cells) in experiment [1] (setting [6]). The “Hoechst 33342 nuclear staining score, Jurkat” value in experiment [1] (setting [3]) is recorded as 0; in experiment [1] (setting [4]), 0; in experiment [1] (setting [5]), 0; in experiment [1] (setting [6]), 2 (strong activity comprising more than 50% of the cells).

On to `Cc1ccc(S(=O)(=O)n2cc(CNc3ccc(S(N)(=O)=O)cc3)cc2-c2ccc3c(c2)OCO3)cc1` [Example 45], for which the IC50 in the experiment with HeLa and with MRC5 was more than 1000 nM throughout. For the same compound, the “Hoechst 33342 nuclear staining score, HeLa” value is on record as 0 in experiment [1] (setting [3]), 0 in experiment [1] (setting [4]), 0 in experiment [1] (setting [5]) and 1 (weak activity comprising less than 50% of the cells) in experiment [1] (setting [6]). Besides, the “Hoechst 33342 nuclear staining score, Jurkat” value in experiment [1] (setting [3]) was 0; in experiment [1] (setting [4]), 0; in experiment [1] (setting [5]), 0; in experiment [1] (setting [6]) it was 2 (strong activity comprising more than 50% of the cells).
